The target in one assay is Aβ (1-42) fibril (Homo sapiens, UniProt P05067). Briefly: in vitro sink-like Aβ assay: Aβ dissolved from fibril in presence of compound, Aβ ELISA of supernatant. Conditions: Aβ (1-42) fibril pellets, PBS containing compound, 37° C. for one day, supernatant by Aβ ELISA; control (PBS without compound) = 1. The format is biochemical. The protocol:
Sandwich ELISA for Aβ (1-40) and Aβ (1-42) was performed using an Aβ (1-40) ELISA kit and Aβ (1-42) ELISA kit (Biosoure, IBL, Signet Laboratories and the like). […] The peptide was incubated for several days at 37° C. until fibrillization was completed. After centrifugation at 22° C. (15,000×g, 10 min), the supernatant was removed. The obtained pellets were gradually and carefully washed 3 times with PBS. Fresh PBS (20 μl) was carefully and gradually added to the pellets. The sample was incubated at 37° C. for one day. After centrifugation (15,000×g, 10 min) at 22° C., the supernatant was removed. […] The sample was incubated at 37° C. for one day.

A further assay deals with Aβ. Particulars: in vitro; Ono, Biochim Biophys Acta 2004; cited from earlier work.
Assay [1] concerns protease-resistant protein (PrP-res). Conditions: cited from earlier work.
A further assay deals with tau. Conditions: Taniguchi et al., J Biol Chem 2005; cited from earlier work.

Sequence of Aβ (1-42) fibril (P05067 672-713): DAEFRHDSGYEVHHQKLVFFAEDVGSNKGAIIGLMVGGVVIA

On to `COc1cc(/C=C/C(=O)CC(=O)/C=C/c2ccc(O)c(OC)c2)ccc1O` [curcumin], for which, on Aβ (1-42) fibril, the “average (ratio of Aβ dissolved from fibril when the control is 1)” value turned out to be 2.4691. As to `O=C(OC[C@H]1O[C@@H](OC(=O)c2cc(O)c(O)c(OC(=O)c3cc(O)c(O)c(O)c3)c2)[C@H](OC(=O)c2cc(O)c(O)c(OC(=O)c3cc(O)c(O)c(O)c3)c2)[C@@H](OC(=O)c2cc(O)c(O)c(OC(=O)c3cc(O)c(O)c(O)c3)c2)[C@@H]1OC(=O)c1cc(O)c(O)c(OC(=O)c2cc(O)c(O)c(O)c2)c1)c1cc(O)c(O)c(OC(=O)c2cc(O)c(O)c(O)c2)c1` [tannic acid], the “inhibitory action on the formation or elongation of Aβ” value with Aβ is on record as “in vitro inhibitory action on the formation or elongation of Aβ”. Also, the “average (ratio of Aβ dissolved from fibril when the control is 1)” value at Aβ (1-42) fibril stood at 1.3969. In the case of `CCN(CCO)c1ccc(/N=N/c2sc3cc(OC)ccc3[n+]2C)cc1` [basic blue 41], the “average (ratio of Aβ dissolved from fibril when the control is 1)” value at Aβ (1-42) fibril is 2.299. On to ferric dehydroporphyrin IX, for which, in assay [1], the “inhibition of formation of protease-resistant protein (PrP-res)” value is recorded as “inhibit in vitro the formation of a protease-resistant protein (PrP-res)”. Further, at Aβ (1-42) fibril, the “average (ratio of Aβ dissolved from fibril when the control is 1)” value came to 1.4124. For the same compound, the “inhibition of tau filament formation” value in the assay on tau is “inhibits tau filament formation”. For the compound `CNc1ccc2nc3ccc(=[N+](C)C)cc-3sc2c1.[Cl-]` [azure B], the “average (ratio of Aβ dissolved from fibril when the control is 1)” value on Aβ (1-42) fibril is reported as 2.1701. Also, in the assay with tau, the “inhibition of tau filament formation” value is given as “inhibit tau filament formation”. As for `O=c1c(O)c(-c2cc(O)c(O)c(O)c2)oc2cc(O)cc(O)c12` [myricetin], the “inhibitory action on the formation or elongation of Aβ” value in the assay on Aβ is on record as “in vitro inhibitory action on the formation or elongation of Aβ”. Besides, at Aβ (1-42) fibril, the “average (ratio of Aβ dissolved from fibril when the control is 1)” value is listed as 1.3196.

These data come from patent US20090087916A1, “Assay method for identifying drug candidate” (AnGesMG, Inc., priority 2004, published 2009).
